# Patent US20210063374A1, “ABNORMAL CARDIAC RHYTHM MYOCARDIAL MODEL AND METHOD FOR PRODUCING SAME, AGENT FOR FORMING ABNORMAL CARDIAC RHYTHM MYOCARDIAL MODEL, AND METHOD FOR EVALUATING DRUG EFFICACY OF HEART DISEASE THERAPEUTIC” (TOPPAN PRINTING CO., LTD., priority 2017, published 2021)
# Entries after “also recorded” stand apart in the source; their conditions may differ.
# Tested on: myocardial models composed of three-dimensional tissues (iPS-CM 75%/NHCF 25%)
# Test: Evaluation of drug response to isoproterenol (change rate of the number of beats of myocardial model)
# Assay type: cell-based, human
# Settings: 100 nM isoproterenol, 30, 60, 80 min incubation, FIG. 12
# Procedure: 5 mL of 10× phosphate buffered saline (PBS) was added to 50 mg of a pig skin-derived type I collagen (provided by NH Foods Ltd.), and was subjected to homogenization by using a homogenizer for 6 min. Subsequently, centrifugation was performed at 10000 rpm for 3 min to remove the supernatant. 5 mL of serum-free DMEM was added thereto, followed by washing by pipetting for 1 min. After the washing, centrifugation was performed at 10000 rpm for 3 min to remove the supernatant. 5 mL of serum-containing DMEM was added thereto to prepare a culture medium (CMF concentration: 9.8 mg/mL) having fragmented collagens (CMF) dispersed therein. Dispersions were weighed from the culture medium having CMF dispersed therein such that the amounts of CMFs were 0, 1, 2, and 3 mg, were mixed with 5×10^5 cells of iPS-CM 75%/NHCF 25%, and were seeded in a 96-well round-bottomed non-adherent plate (the amount of the culture medium: 300 μL). Subsequently, centrifugation was performed at 1100 g for 5 min to precipitate the CMFs and the cells. After the centrifugation, culturing was performed in a culture-ware at 37° C. The culture medium was replaced every 2 days by removing the old culture medium and adding 300 μL of new culture medium.
# A three-dimensional tissue was constructed in the same manner as above. […] The content of the collagen in the three-dimensional tissue was measured using the kit above according to the standard protocol of the kit.
# The cardiac rhythms of the tissues after culturing for 5 to 6 days were taken using a SONY Motion analyzer to measure the number of beats. […] From the results of measurement, the change rate of the number of beats (change rate of beating) by adding isoproterenol was calculated from the following equation. […]
# The change rate of the number of beats caused by addition of isoproterenol is determined by the equation above, and this value is corrected by the equation below, i.e., by dividing this value by the change rate of the number of beats when the drug is not added (=a change in the number of beats caused by replacement of the culture medium).
structure (smiles),measurement,setting,value
CC(C)NCC(O)c1ccc(O)c(O)c1 (stereo not drawn) [isoproterenol],drug response (change rate of the number of beats),myocardial model with 0 mg CMFs,poor
same,drug response (change rate of the number of beats),myocardial model with 1 mg CMFs,exhibited; also recorded: more favorable drug response
same,drug response (change rate of the number of beats),myocardial model with 3 mg CMFs,exhibited
